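GI50 marks 50% less growth. TGI: concentration producing complete growth inhibition.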
Legend:
Assay in all cases: NCI-60 cell line screen, 384-well format
SK-MEL-2 melanoma = tested on: SK-MEL-2 melanoma
NCI/ADR-RES ovarian = tested on: NCI/ADR-RES ovarian
HT29 colon = tested on: HT29 colon
UACC-62 melanoma = tested on: UACC-62 melanoma
U251 glioblastoma = tested on: U251 glioblastoma
HL-60(TB) leukemia = tested on: HL-60(TB) leukemia
NCI-H460 NSCLC = tested on: NCI-H460 NSCLC
DU-145 prostate = tested on: DU-145 prostate
TK-10 renal = tested on: TK-10 renal
OVCAR-5 ovarian = tested on: OVCAR-5 ovarian
SF-268 CNS = tested on: SF-268 CNS
NCI-H226 lung = tested on: NCI-H226 lung
NCI-H23 lung = tested on: NCI-H23 lung
LOX IMVI melanoma = tested on: LOX IMVI melanoma
SW-620 colon = tested on: SW-620 colon
SF-295 CNS = tested on: SF-295 CNS
A549 NSCLC = tested on: A549 NSCLC
NCI-H322M lung = tested on: NCI-H322M lung
OVCAR-3 ovarian = tested on: OVCAR-3 ovarian
M14 melanoma = tested on: M14 melanoma
CCRF-CEM leukemia = tested on: CCRF-CEM leukemia
HCT-116 colon = tested on: HCT-116 colon
K-562 leukemia = tested on: K-562 leukemia
COLO 205 colon = tested on: COLO 205 colon
SN12C renal = tested on: SN12C renal
MDA-MB-231 breast = tested on: MDA-MB-231 breast
UACC-257 melanoma = tested on: UACC-257 melanoma
SF-539 CNS = tested on: SF-539 CNS
PC-3 prostate = tested on: PC-3 prostate
HCT-15 colon = tested on: HCT-15 colon
HCC-2998 colon = tested on: HCC-2998 colon
HOP-92 NSCLC = tested on: HOP-92 NSCLC
T-47D breast = tested on: T-47D breast
SNB-19 CNS = tested on: SNB-19 CNS
SK-OV-3 ovarian = tested on: SK-OV-3 ovarian
HOP-62 NSCLC = tested on: HOP-62 NSCLC
ACHN renal = tested on: ACHN renal
SK-MEL-28 melanoma = tested on: SK-MEL-28 melanoma
A498 renal = tested on: A498 renal
OVCAR-4 ovarian = tested on: OVCAR-4 ovarian
MOLT-4 leukemia = tested on: MOLT-4 leukemia
KM12 colon = tested on: KM12 colon
RPMI-8226 leukemia = tested on: RPMI-8226 leukemia
786-0 renal = tested on: 786-0 renal
UO-31 renal = tested on: UO-31 renal
IGROV1 ovarian = tested on: IGROV1 ovarian
MALME-3M melanoma = tested on: MALME-3M melanoma
CAKI-1 renal = tested on: CAKI-1 renal
OVCAR-8 ovarian = tested on: OVCAR-8 ovarian
MDA-MB-435 melanoma = tested on: MDA-MB-435 melanoma

In the case of CO[C@H]1C[C@@H]2CC[C@@H](C)[C@@](O)(O2)C(=O)C(=O)N2CCCC[C@H]2C(=O)O[C@H]([C@H](C)C[C@@H]2CC[C@@H](OP(C)(C)=O)[C@H](OC)C2)CC(=O)[C@H](C)/C=C(\C)[C@@H](O)[C@@H](OC)C(=O)[C@H](C)C[C@H](C)/C=C/C=C/C=C/1C, the GI50 (SK-MEL-2 melanoma) is reported as 11 µM, the TGI (SK-MEL-2 melanoma) is reported as 23 µM and the GI50 (NCI/ADR-RES ovarian) is reported as 15.4 µM. For the same compound, the TGI (NCI/ADR-RES ovarian) was 38.7 µM, the GI50 (HT29 colon) was 12.5 µM and the TGI (HT29 colon) was 25.2 µM. The GI50 (UACC-62 melanoma) was 7.86 µM, the TGI (UACC-62 melanoma) was 21.6 µM and the GI50 (U251 glioblastoma) was 4.92 µM. The TGI (U251 glioblastoma) was 21.3 µM, the GI50 (HL-60(TB) leukemia) was 15.3 µM and the TGI (HL-60(TB) leukemia) was 28.7 µM. The GI50 (NCI-H460 NSCLC) was under 0.01 µM, the TGI (NCI-H460 NSCLC) was 17.4 µM and the GI50 (DU-145 prostate) was 11.3 µM. For the same compound, the TGI (DU-145 prostate) was 26.8 µM, the GI50 (TK-10 renal) was 11.6 µM and the TGI (TK-10 renal) was 28.6 µM. For the same compound, the GI50 (OVCAR-5 ovarian) was 15.3 µM, the TGI (OVCAR-5 ovarian) was 29.8 µM and the GI50 (SF-268 CNS) was 12.5 µM. The TGI (SF-268 CNS) was 25.3 µM, the GI50 (NCI-H226 lung) was 12.4 µM and the TGI (NCI-H226 lung) was 25.3 µM. The GI50 (NCI-H23 lung) was 19.5 µM, the TGI (NCI-H23 lung) was 35.2 µM and the GI50 (LOX IMVI melanoma) was 17.5 µM. It also gave a TGI (LOX IMVI melanoma) of 31.4 µM, a GI50 (SW-620 colon) of 14.9 µM and a TGI (SW-620 colon) of 28.6 µM. The GI50 (SF-295 CNS) was under 0.01 µM, the TGI (SF-295 CNS) was 16.6 µM and the GI50 (A549 NSCLC) was under 0.01 µM. The TGI (A549 NSCLC) was 39.9 µM, the GI50 (NCI-H322M lung) was under 0.01 µM and the TGI (NCI-H322M lung) was 25.3 µM. The GI50 (OVCAR-3 ovarian) was 11.2 µM, the TGI (OVCAR-3 ovarian) was 23.4 µM and the GI50 (M14 melanoma) was 10.4 µM. The TGI (M14 melanoma) was 22.2 µM, the GI50 (CCRF-CEM leukemia) was 0.0126 µM and the TGI (CCRF-CEM leukemia) was 17 µM. For the same compound, the GI50 (HCT-116 colon) was 12.4 µM, the TGI (HCT-116 colon) was 25.2 µM and the GI50 (K-562 leukemia) was 11.2 µM. The TGI (K-562 leukemia) was 23.4 µM, the GI50 (COLO 205 colon) was 13.5 µM and the TGI (COLO 205 colon) was 26.5 µM. It also gave a GI50 (SN12C renal) of 14 µM, a TGI (SN12C renal) of 27.2 µM and a GI50 (MDA-MB-231 breast) of 12 µM. For the same compound, the TGI (MDA-MB-231 breast) was 24.4 µM, the GI50 (UACC-257 melanoma) was 15.3 µM and the TGI (UACC-257 melanoma) was 28.7 µM. The GI50 (SF-539 CNS) was under 0.01 µM, the TGI (SF-539 CNS) was 20.7 µM and the GI50 (PC-3 prostate) was 1.06 µM. The TGI (PC-3 prostate) was 21.3 µM, the GI50 (HCT-15 colon) was 11.4 µM and the TGI (HCT-15 colon) was 23.9 µM. The GI50 (HCC-2998 colon) was 12.3 µM, the TGI (HCC-2998 colon) was 24.9 µM and the GI50 (HOP-92 NSCLC) was 12.5 µM. The TGI (HOP-92 NSCLC) was 25.5 µM, the GI50 (T-47D breast) was under 0.01 µM and the TGI (T-47D breast) was 25 µM. The GI50 (SNB-19 CNS) was 13.5 µM, the TGI (SNB-19 CNS) was 26.9 µM and the GI50 (SK-OV-3 ovarian) was under 0.01 µM. The TGI (SK-OV-3 ovarian) was 20.2 µM, the GI50 (HOP-62 NSCLC) was 0.491 µM and the TGI (HOP-62 NSCLC) was 21.7 µM. It also gave a GI50 (ACHN renal) of 12.4 µM, a TGI (ACHN renal) of 25.2 µM and a GI50 (SK-MEL-28 melanoma) of 12.2 µM. For the same compound, the TGI (SK-MEL-28 melanoma) was 24.7 µM, the GI50 (A498 renal) was under 0.01 µM and the TGI (A498 renal) was 17.6 µM. It also gave a GI50 (OVCAR-4 ovarian) of 12 µM, a TGI (OVCAR-4 ovarian) of 25 µM and a GI50 (MOLT-4 leukemia) of under 0.01 µM. The TGI (MOLT-4 leukemia) was 11.7 µM, the GI50 (KM12 colon) was 13.4 µM and the TGI (KM12 colon) was 26.6 µM. For the same compound, the GI50 (RPMI-8226 leukemia) was under 0.01 µM, the GI50 ([…]-0 renal) was 11.2 µM and the TGI (786-0 renal) was 23.5 µM. For the same compound, the GI50 (UO-31 renal) was under 0.01 µM, the TGI (UO-31 renal) was 0.0198 µM and the GI50 (IGROV1 ovarian) was under 0.01 µM. It also gave a TGI (IGROV1 ovarian) of 16 µM, a GI50 (MALME-3M melanoma) of under 0.01 µM and a TGI (MALME-3M melanoma) of 21.2 µM. It also gave a GI50 (CAKI-1 renal) of 10.5 µM, a TGI (CAKI-1 renal) of 23.1 µM and a GI50 (OVCAR-8 ovarian) of 11 µM. For the same compound, the TGI (OVCAR-8 ovarian) was 23.2 µM, the GI50 (MDA-MB-435 melanoma) was 14.2 µM and the TGI (MDA-MB-435 melanoma) was 27.9 µM.

From PubChem BioAssay (NCI)
